{
  "source": "the NIST ThermoML archive (doi:10.1021/je800713c)",
  "key": {"[1]": {"test": "mn = molality of the nth substance listed, in mol/kg", "conditions": "298.15 K, 101 kPa, Liquid"}, "[2]": {"test": "cn = amount concentration of the nth substance listed, in mol/dm3", "conditions": "298.15 K, 101 kPa, Liquid, Alternating current cell with electrodes"}},
  "note": "Numbers after ± are expanded uncertainties.",
  "data": [
    {"smiles": "CC(C)[C@H](NC(=O)CN)C(=O)O", "note": "[glycyl-L-valine] + O", "values": [
      {"measurement": "mass density", "setting": "[1]; Vibrating tube method, m1 = 0.02261", "value": "1000.88 ± 4", "unit": "kg/m3"},
      {"measurement": "mass density", "setting": "[1]; Vibrating tube method, m1 = 0.03982", "value": "1001.76 ± 4", "unit": "kg/m3"},
      {"measurement": "mass density", "setting": "[1]; Vibrating tube method, m1 = 0.06223", "value": "1002.9 ± 4", "unit": "kg/m3"},
      {"measurement": "mass density", "setting": "[1]; Vibrating tube method, m1 = 0.07858", "value": "1003.73 ± 4", "unit": "kg/m3"},
      {"measurement": "mass density", "setting": "[1]; Vibrating tube method, m1 = 0.1017", "value": "1004.89 ± 4", "unit": "kg/m3"},
      {"measurement": "mass density", "setting": "[1]; Vibrating tube method, m1 = 0.1513", "value": "1007.38 ± 4", "unit": "kg/m3"},
      {"measurement": "mass density", "setting": "[1]; Vibrating tube method, m1 = 0.1799", "value": "1008.77 ± 4", "unit": "kg/m3"}
    ]},
    {"smiles": "NCC(=O)NCC(=O)O", "note": "[glycylglycine] + O", "values": [
      {"measurement": "mass density", "setting": "[1]; Vibrating tube method, m1 = 0.06033", "value": "1003.05 ± 4", "unit": "kg/m3"},
      {"measurement": "mass density", "setting": "[1]; Vibrating tube method, m1 = 0.08146", "value": "1004.21 ± 4", "unit": "kg/m3"},
      {"measurement": "mass density", "setting": "[1]; Vibrating tube method, m1 = 0.1018", "value": "1005.33 ± 4", "unit": "kg/m3"},
      {"measurement": "mass density", "setting": "[1]; Vibrating tube method, m1 = 0.1481", "value": "1007.84 ± 4", "unit": "kg/m3"},
      {"measurement": "mass density", "setting": "[1]; Vibrating tube method, m1 = 0.2504", "value": "1013.33 ± 4", "unit": "kg/m3"},
      {"measurement": "mass density", "setting": "[1]; Vibrating tube method, m1 = 0.2965", "value": "1015.78 ± 4", "unit": "kg/m3"},
      {"measurement": "mass density", "setting": "[1]; Vibrating tube method, m1 = 0.3421", "value": "1018.08 ± 4", "unit": "kg/m3"}
    ]},
    {"smiles": "O", "note": "[water] + CC(C)[C@H](NC(=O)CN)C(=O)O", "values": [
      {"measurement": "mass density", "setting": "[1]; Vibrating tube method, m2 = 0", "value": "999.705 ± 4", "unit": "kg/m3"}
    ]},
    {"smiles": "O", "note": "[water] + CC(C)C[C@H](NC(=O)CN)C(=O)O", "values": [
      {"measurement": "mass density", "setting": "[1]; Vibrating tube method, m2 = 0", "value": "999.705 ± 4", "unit": "kg/m3"}
    ]},
    {"smiles": "O", "note": "[water] + NCC(=O)NCC(=O)O", "values": [
      {"measurement": "mass density", "setting": "[1]; Vibrating tube method, m2 = 0", "value": "999.705 ± 4", "unit": "kg/m3"}
    ]},
    {"smiles": "CC(C)C[C@H](NC(=O)CN)C(=O)O", "note": "[glycyl-L-leucine] + O", "values": [
      {"measurement": "mass density", "setting": "[1]; Vibrating tube method, m1 = 0.01944", "value": "1000.64 ± 4", "unit": "kg/m3"},
      {"measurement": "mass density", "setting": "[1]; Vibrating tube method, m1 = 0.02958", "value": "1001.13 ± 4", "unit": "kg/m3"},
      {"measurement": "mass density", "setting": "[1]; Vibrating tube method, m1 = 0.0395", "value": "1001.61 ± 4", "unit": "kg/m3"},
      {"measurement": "mass density", "setting": "[1]; Vibrating tube method, m1 = 0.04928", "value": "1002.08 ± 4", "unit": "kg/m3"},
      {"measurement": "mass density", "setting": "[1]; Vibrating tube method, m1 = 0.057", "value": "1002.44 ± 4", "unit": "kg/m3"},
      {"measurement": "mass density", "setting": "[1]; Vibrating tube method, m1 = 0.07128", "value": "1003.12 ± 4", "unit": "kg/m3"},
      {"measurement": "mass density", "setting": "[1]; Vibrating tube method, m1 = 0.07696", "value": "1003.39 ± 4", "unit": "kg/m3"},
      {"measurement": "mass density", "setting": "[1]; Vibrating tube method, m1 = 0.09125", "value": "1004.06 ± 4", "unit": "kg/m3"}
    ]},
    {"smiles": "CCCC(=O)[O-].[Na+]", "note": "[sodium butyrate] + O", "values": [
      {"measurement": "mass density", "setting": "[1]; m1 = 0.5", "value": "1016.31 ± 0.31", "unit": "kg/m3"},
      {"measurement": "mass density", "setting": "[1]; m1 = 1", "value": "1033.73 ± 0.37", "unit": "kg/m3"},
      {"measurement": "mass density", "setting": "[1]; m1 = 1.5", "value": "1049.36 ± 0.42", "unit": "kg/m3"},
      {"measurement": "mass density", "setting": "[1]; m1 = 2", "value": "1064.03 ± 0.47", "unit": "kg/m3"},
      {"measurement": "molar conductivity", "setting": "[2]; c1 = 0.0003234", "value": "0.00796 ± 0.00013", "unit": "S·m2/mol"},
      {"measurement": "molar conductivity", "setting": "[2]; c1 = 0.001116", "value": "0.00795 ± 0.00013", "unit": "S·m2/mol"},
      {"measurement": "molar conductivity", "setting": "[2]; c1 = 0.001273", "value": "0.00794 ± 0.00013", "unit": "S·m2/mol"},
      {"measurement": "molar conductivity", "setting": "[2]; c1 = 0.001488", "value": "0.00792 ± 0.00013", "unit": "S·m2/mol"},
      {"measurement": "molar conductivity", "setting": "[2]; c1 = 0.00188", "value": "0.00788 ± 0.00013", "unit": "S·m2/mol"},
      {"measurement": "molar conductivity", "setting": "[2]; c1 = 0.002076", "value": "0.00787 ± 0.00013", "unit": "S·m2/mol"},
      {"measurement": "molar conductivity", "setting": "[2]; c1 = 0.00243", "value": "0.00784 ± 0.00013", "unit": "S·m2/mol"},
      {"measurement": "molar conductivity", "setting": "[2]; c1 = 0.003167", "value": "0.00766 ± 0.00012", "unit": "S·m2/mol"},
      {"measurement": "molar conductivity", "setting": "[2]; c1 = 0.006298", "value": "0.00753 ± 0.00012", "unit": "S·m2/mol"},
      {"measurement": "molar conductivity", "setting": "[2]; c1 = 0.008849", "value": "0.00744 ± 0.00012", "unit": "S·m2/mol"},
      {"measurement": "molar conductivity", "setting": "[2]; c1 = 0.01124", "value": "0.00737 ± 0.00012", "unit": "S·m2/mol"},
      {"measurement": "molar conductivity", "setting": "[2]; c1 = 0.01353", "value": "0.00732 ± 0.00012", "unit": "S·m2/mol"},
      {"measurement": "molar conductivity", "setting": "[2]; c1 = 0.0155", "value": "0.00727 ± 0.00012", "unit": "S·m2/mol"},
      {"measurement": "molar conductivity", "setting": "[2]; c1 = 0.01721", "value": "0.00724 ± 0.00012", "unit": "S·m2/mol"},
      {"measurement": "molar conductivity", "setting": "[2]; c1 = 0.01916", "value": "0.0072 ± 0.00012", "unit": "S·m2/mol"},
      {"measurement": "molar conductivity", "setting": "[2]; c1 = 0.02091", "value": "0.00717 ± 0.00011", "unit": "S·m2/mol"},
      {"measurement": "molar conductivity", "setting": "[2]; c1 = 0.02284", "value": "0.00714 ± 0.00011", "unit": "S·m2/mol"},
      {"measurement": "molar conductivity", "setting": "[2]; c1 = 0.02481", "value": "0.0071 ± 0.00011", "unit": "S·m2/mol"},
      {"measurement": "molar conductivity", "setting": "[2]; c1 = 0.02647", "value": "0.00707 ± 0.00011", "unit": "S·m2/mol"}
    ]}
  ]
}
